Laboratory results from patent publication US11191757B2, “Combination of pimavanserin and cytochrome P450 modulators” (ACADIA Pharmaceuticals Inc., priority 2016, dated 2021).
“Also recorded” adds a separate entry of the source.

Tests used:
[1] = Pharmacokinetics of single-dose pimavanserin alone and in the presence of multiple-dose ketoconazole (strong CYP3A inhibitor) in healthy subjects; settings: for exposure to metabolite, mean AUC ratio AUC(metabolite)/AUC(parent): after a single dose of pimavanserin; for metabolite plasma concentrations with ketoconazole co-administration: metabolite in plasma after pimavanserin tartrate 40 mg with ketoconazole 400 mg daily; for metabolite plasma levels after pimavanserin: metabolite in plasma after single dose pimavanserin tartrate 40 mg, 19 subjects
Protocol: (§2) 20 subjects (14 males and 6 females) were enrolled in this study. These subjects were healthy male or female subjects between the ages of 18 and 55 years, and with a body mass index (BMI) between 18 and 30 kg/m^2. Among the 20 subjects, 10 subjects (50%) were black, 9 subjects (45%) were white and 1 subject (5%) was American Indian/Alaska native.
(§3) On Day 1, subjects received a single oral dose of pimavanserin tartrate 40 mg (2×20 mg tablets) under fasting conditions. On Day 15, subjects began taking ketoconazole 400 mg (2×200 mg tablets) orally once daily for 14 days. A single oral dose of pimavanserin tartrate 40 mg was administered under fasting conditions 60 minutes after the fifth ketoconazole dose (on Day 19). Both single doses of pimavanserin tartrate were administered on an empty stomach, following an overnight fast of approximately 10 hours prior to dosing. Subjects continued to fast for 4 hours after administration of pimavanserin tartrate.
(§4) Samples for pimavanserin pharmacokinetic (PK) analysis were collected prior to each pimavanserin dose and at scheduled time points up to 14 days post-dose. More specifically, blood samples for the determination of plasma pimavanserin and four of its metabolites were collected at the following time points in relation to pimavanserin dosing on Day 1 and Day 19: pre-dose (within 30 minutes of dosing), 1, 2, 4, 6, 9, 12, 16, 24, 36, 48, 72, 96, 144, 192, 264, and 336 hours post-dose. The pharmacokinetics of pimavanserin and four metabolites, M1 (N-desmethyl-pimavanserin), M2 (O-desalkyl-pimavanserin), M3 ([ω-1]-hydroxy-pimavanserin), and M4 (ω-hydroxy-pimavanserin), by treatment consisting of pimavanserin alone and pimavanserin with ketoconazole, were assessed using noncompartmental analysis.
(§5) The following parameters were determined for pimavanserin, M1, M2 and M3 (the analytes for which there was a sufficient number of quantifiable post-dose concentrations): the area under the concentration-time curve from 0 to the time of the last measurable concentration (AUC0-t); the area from 0 to infinity (AUC0-inf); the percent of the extrapolated portion of the AUC0-inf (% AUCext); the maximum observed plasma concentration (Cmax); time of maximum plasma concentration (Tmax); apparent first-order terminal elimination rate constant (kel), and apparent first-order terminal elimination half-life (t1/2). Additional PK parameters computed for pimavanserin were oral clearance (CL/F), and apparent volume of distribution (Vz/F). Where feasible, as in the case of pimavanserin, M1, M2 and M3, parent ratios, which were computed as AUC(metabolite)/AUC(parent) ratios based on both AUC0-t and AUC0-inf were also determined.
(§6) A two-sided paired t-test was performed on the natural log-transformed pimavanserin AUC0-t, AUC0-inf, and Cmax at the alpha level of 0.05. The geometric ratio of treatment means (pimavanserin with ketoconazole/pimavanserin alone) and 90% geometric confidence intervals for the ratio of means were calculated for AUC0-t, AUC0-inf, and Cmax.

[2] = Elimination half-life of circulating metabolite M1 in humans in vivo; parameters: species or system human
[3] = Safety and tolerability of single-dose pimavanserin alone and in the presence of ketoconazole in healthy subjects; assay type: in vivo, human; settings: for treatment-related TEAEs considered related to the substance, number (% of the 16 treatment-related TEAEs): 20 healthy subjects, pimavanserin tartrate 40 mg single doses, ketoconazole 400 mg daily for 14 days; for safety and tolerability: healthy adult subjects
Protocol: The subject who was discontinued was not replaced.
Safety data (including adverse events (AEs)), laboratory tests, vital sign measurements, electrocardiograms (ECGs), and physical examination (PE) were reviewed throughout the study for the purpose of safety monitoring. Clinical laboratory assessments were obtained on Day −1, Day 18, and the end of study visit. Vital signs were performed at each study visit, except on Day −1. A 12-lead ECG was performed on Day −1, Day 1, Day 19 and the end of study visit. Other safety measures included physical examination on Days −1, 3, 23, and the end of study visit and any other measures deemed necessary.
All available safety data from subjects receiving at least one dose of study medication were included in the safety analyses. The frequency of AEs was tabulated. Pre-treatment, within study, and end of study, and change from pre-treatment laboratory, vital signs, and ECG parameters were summarized. Shift tables were prepared for laboratory parameters.

CYP2J2 = biological target: T1, CYP2J2 (Homo sapiens, UniProt P51589); test: In vitro studies of the enzymes forming the primary metabolites of pimavanserin; assay type: in vitro ADME
T1 sequence (P51589 1-502): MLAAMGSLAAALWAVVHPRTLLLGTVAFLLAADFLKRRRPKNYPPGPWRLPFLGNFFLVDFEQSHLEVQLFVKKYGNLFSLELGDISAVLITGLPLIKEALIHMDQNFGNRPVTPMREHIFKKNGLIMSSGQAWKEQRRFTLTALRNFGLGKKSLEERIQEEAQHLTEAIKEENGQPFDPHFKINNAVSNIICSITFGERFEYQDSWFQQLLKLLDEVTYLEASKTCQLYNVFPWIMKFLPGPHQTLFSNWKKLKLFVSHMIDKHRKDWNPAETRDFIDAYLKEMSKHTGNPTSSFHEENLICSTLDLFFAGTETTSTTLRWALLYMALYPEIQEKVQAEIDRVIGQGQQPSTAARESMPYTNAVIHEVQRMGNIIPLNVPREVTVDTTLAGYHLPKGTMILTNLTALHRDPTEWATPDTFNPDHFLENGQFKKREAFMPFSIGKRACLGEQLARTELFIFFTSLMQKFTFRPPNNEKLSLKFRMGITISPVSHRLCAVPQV
Excerpt: (§1) A major metabolite formed in vitro by human liver microsomes, M1 (N-desmethyl-pimavanserin), was identified as a significant circulating metabolite in humans in vivo.

[4] = both, human, in vivo
Protocol: as §2, §3, §4, §5, §6

CYP3A4 = biological target: T2, CYP3A4 (Homo sapiens, UniProt P08684); test: Effect of pimavanserin on the pharmacokinetics of midazolam, in vivo probe drug for CYP3A4; settings: 34 mg pimavanserin for up to 38 days, humans
T2 construct: from tissue; host or cells: human subjects in vivo (endogenous hepatic/intestinal enzyme)
T2 sequence (P08684 whole entry): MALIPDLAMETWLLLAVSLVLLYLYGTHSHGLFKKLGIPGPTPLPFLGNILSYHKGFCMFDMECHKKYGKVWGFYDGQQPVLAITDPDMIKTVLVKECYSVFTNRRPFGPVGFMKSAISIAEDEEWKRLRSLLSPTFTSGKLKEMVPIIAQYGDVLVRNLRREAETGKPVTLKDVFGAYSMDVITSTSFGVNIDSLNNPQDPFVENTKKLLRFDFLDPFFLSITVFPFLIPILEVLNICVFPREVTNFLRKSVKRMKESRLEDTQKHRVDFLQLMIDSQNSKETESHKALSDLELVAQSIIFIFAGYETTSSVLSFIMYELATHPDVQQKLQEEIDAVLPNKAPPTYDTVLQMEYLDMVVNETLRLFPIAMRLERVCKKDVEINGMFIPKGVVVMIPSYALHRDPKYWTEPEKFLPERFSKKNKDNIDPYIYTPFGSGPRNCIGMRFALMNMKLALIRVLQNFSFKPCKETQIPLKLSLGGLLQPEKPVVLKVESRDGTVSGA
Protocol: In this study, the pharmacokinetics of midazolam, a sensitive in vivo probe drug for CYP3A4 and an accepted probe drug for CYP3A4, were evaluated in the presence of pimavanserin in humans. […] No dose adjustment is therefore required for other CYP3A4 substrates when coadministered with pimavanserin.

clinical = settings: both, human, in vivo, po, 40 mg
Protocol: as §2, §3, §4, §5, §6

[5] = biological target: cytochrome P450 (CYP) 3A4 (Homo sapiens, UniProt P08684); test: In vitro studies of the enzymes forming the primary metabolites of pimavanserin; assay type: in vitro ADME
Chain of cytochrome P450 (CYP) 3A4 (P08684 whole entry): as above
Protocol: as §1
An in vitro study was performed to analyze the role of a CYP3A4 inhibitor in pimavanserin metabolism.

CC(C)COc1ccc(CNC(=O)N(Cc2ccc(F)cc2)C2CCNCC2)cc1 [M1, N-desmethyl-pimavanserin]
exposure to metabolite, mean AUC ratio AUC(metabolite)/AUC(parent) [1]: 1.47 | net increase in mean AUC0-t of metabolite with ketoconazole co-administration relative to pimavanserin alone ([1]; metabolite in plasma after pimavanserin tartrate 40 mg, ketoconazole 400 mg daily): 26% | elimination half-life [2]: about 65 hours

CN1CCC(N(Cc2ccc(F)cc2)C(=O)NCc2ccc(O)cc2)CC1 [M2, O-desalkyl-pimavanserin]
exposure to metabolite, mean AUC ratio AUC(metabolite)/AUC(parent) [1]: 0.0365 | metabolite plasma concentrations with ketoconazole co-administration [1]: decreased plasma concentrations; also recorded: reduced

CN1CCC(N(Cc2ccc(F)cc2)C(=O)NCc2ccc(OCC(C)(C)O)cc2)CC1 [M3, [ω-1]-hydroxy-pimavanserin]
metabolite plasma concentrations with ketoconazole co-administration [1]: not detectable in any subjects; also recorded: reduced | metabolite plasma levels after pimavanserin [1]: Only 5 of the 19 subjects had a few measurable plasma levels; also recorded: Low levels

CC(CO)COc1ccc(CNC(=O)N(Cc2ccc(F)cc2)C2CCN(C)CC2)cc1 (stereo not shown) [M4, ω-hydroxy-pimavanserin]
metabolite plasma levels after pimavanserin [1]: undetectable; also recorded: no detectable concentrations

CC(C)COc1ccc(CNC(=O)N(Cc2ccc(F)cc2)C2CCN(C)CC2)cc1 [Pimavanserin, N-(1-methylpiperidin-4-yl)-N-(4-fluorophenylmethyl)-N′-(4-(2-methylpropyloxy)phenylmethyl)carbamide]
treatment-related TEAEs considered related to the substance, number (% of the 16 treatment-related TEAEs) [3]: 8 (50%) | changes in mean clinical laboratory, vital signs, 12-lead ECG or physical examination findings ([3]; following pimavanserin alone or pimavanserin with ketoconazole): No trends or clinically relevant changes | safety and tolerability ([3]; pimavanserin administered alone): safe and generally well tolerated | safety and tolerability ([3]; pimavanserin administered with ketoconazole): safe and generally well tolerated | deaths or serious adverse events during the study ([3]; pimavanserin alone and with ketoconazole, 20 subjects): No deaths or serious adverse events | role of enzyme in formation of the primary metabolites (CYP2J2): minor role | ratio of the geometric means, pimavanserin AUC0-inf [4]: approximately 3 | ratio of the geometric means, pimavanserin AUC0-t [4]: approximately 3 | effect on midazolam exposure (induction or inhibition of CYP3A4) (CYP3A4): no immediate or delayed effect | AUC(0-inf) (clinical): 1260 ± 464 ng·h/mL | AUC(0-t) (clinical): 1220 ± 433 ng·h/mL | Cmax (clinical): 17.1 ± 3.8 ng/mL | role of enzyme in formation of the primary metabolites [5]: formed predominantly by the cytochrome P450 (CYP) 3A4 enzymes

CC(=O)N1CCN(c2ccc(OCC3COC(Cn4ccnc4)(c4ccc(Cl)cc4Cl)O3)cc2)CC1 (stereo not shown) [ketoconazole, reference compound]
treatment-related TEAEs considered related to the substance, number (% of the 16 treatment-related TEAEs) [3]: 12 (75%)
